Microsomal CLint, half-life and GI50 data for twelve compounds are collected here from patent US11459334B2, “Substituted pyrrolo[2,1-f][1,2,4]triazines as KIT and/or PDGFR-α inhibitors” (SHENZHEN TARGETRX, INC., priority 2018, dated 2022).

SMILES strings stand for the structures.

The nature of series [1]: Metabolic stability evaluation, rat liver microsome experiment. To be noted: SD, rat liver microsomes, pH 7.4, 1 μM compound, 0.5 mg/mL protein; for microsomal CLint at 1 μM: read-out: CL rat liver microsome experiment; for half-life at 1 μM: read-out: T½ rat liver microsome experiment. It counts as in vitro ADME. The method, then:
(§1) Microsome experiment: human liver microsome: 0.5 mg/mL, Xenotech; rat liver microsome: 0.5 mg/mL, Xenotech; coenzyme (NADPH/NADH): 1 mM, Sigma Life Science; magnesium chloride: 5 mM, 100 mM phosphate buffer (pH 7.4).
(§2) Preparation of stock solution: a certain amount of the example compound powder and control compound powder were accurately weighed, and respectively dissolved to 5 mM with DMSO.
(§3) Preparation of phosphate buffer (100 mM, pH7.4): 150 mL of 0.5M potassium dihydrogen phosphate and 700 mL of 0.5M dipotassium hydrogen phosphate prepared beforehand were mixed, with pH of the mixture adjusted to 7.4 with 0.5M dipotassium hydrogen phosphate solution. Before use, the mixture was diluted by 5 folds with ultrapure water and magnesium chloride was added to obtain the phosphate buffer (100 mM), which contains 100 mM potassium phosphate, 3.3 mM magnesium chloride, and has pH 7.4.
(§4) NADPH regeneration system solution (containing 6.5 mM NADP, 16.5 mM G-6-P, 3 U/mL G-6-P D, 3.3 mM magnesium chloride) was prepared, and placed on wet ice before use.
(§5) Preparation of stop solution: a solution of 50 ng/mL propranolol hydrochloride and 200 ng/mL tolbutamide (internal standard) in acetonitrile. 25057.5 μL of phosphate buffer (pH 7.4) was taken into a 50 mL centrifuge tube, added with 812.5 μL of human liver microsome, and mixed well to obtain a liver microsome diluent with a protein concentration of 0.625 mg/mL. 25057.5 μL of phosphate buffer (pH 7.4) was taken into a 50 mL centrifuge tube, added with 812.5 μL of SD rat liver microsome, and mixed well to obtain a liver microsome diluent with a protein concentration of 0.625 mg/mL.
(§6) Incubation of the samples: the stock solutions of the corresponding compounds were respectively diluted to 0.25 mM with an aqueous solution containing 70% acetonitrile to obtain working solutions for later use. 398 μL of human liver microsome and rat liver microsome diluents were respectively taken and added to a 96-well incubation plate (N=2), added with 2 μL of 0.25 mM working solution respectively, and mixed well.
(§7) Determination of metabolic stability: 300 μL of pre-cooled stop solution was added to each well of a 96-well deep-well plate, and the plate was placed on ice as a stop plate. The 96-well incubation plate and the NADPH regeneration system were placed in a 37° C. water bath, shaken at 100 rpm, and pre-incubated for 5 minutes. 80 μL of incubation solution was taken out of each well of the incubation plate and added to the stop plate, mixed well, and supplemented with 20 μL of NADPH regeneration system solution to obtain the 0 min sample. Then 80 μL of NADPH regeneration system solution was added to each well of the incubation plate to initiate the reaction and start timing. The reaction concentration of the corresponding compound was 1 μM, and the protein concentration was 0.5 mg/mL. At 10, 30, and 90 minutes of reaction, 100 μL of the reaction solution was taken and added to the stop plate, and vortexed for 3 minutes to stop the reaction. The stop plate was centrifuged at 5000×g for 10 min at 4° C. 100 μL of supernatant was taken to a 96-well plate pre-added with 100 μL of distilled water, mixed well, and subjected to sample analysis by LC-MS/MS.
(§8) Data analysis: the peak areas of the corresponding compound and internal standard were detected through the LC-MS/MS system, and the ratio of the peak area of the compound to the internal standard was calculated.
A general note: Liver microsomes are vesicles of endoplasmic reticulum, rich in cytochrome P450 enzymes.

Series [2] has as its target Ba/F3 Kit D816V (Homo sapiens, UniProt P10721, D816V, cells depend on it). The following applies: read-out: Cell IC50 (nM) BaF3/Kit(D816V); 72 hours, CTG.
Series [3] in a line: Metabolic stability evaluation, human liver microsome experiment. The format is in vitro ADME. To be noted: human liver microsomes, pH 7.4, 1 μM compound, 0.5 mg/mL protein; for microsomal CLint at 1 μM: read-out: CL human liver microsome experiment; for half-life at 1 μM: read-out: T½ human liver microsome experiment. The method, then:
as §1, §2, §3, §4, §5, §6, §7, §8

Regarding `Cn1cc(-c2cc3c(N4CCN(c5ncc([C@@](C)(N)c6ccc(F)cc6)cn5)CC4)ncnn3c2)cn1` [Avapritinib, (S)-1-(4-fluorophenyl)-1-(2-(4-(6-(1-methyl-1H-pyrazol-4-yl)pyrrolo[2,1-f][1,2,4]triazin-4-yl)piperazin-1-yl)pyrimidin-5-yl)ethylamine, reference compound], the results for the microsomal CLint at 1 μM in series [1] and in series [3] were 24.6 µL/min/mg and 15.8 µL/min/mg, respectively. Also, the half-life at 1 μM in series [1] amounted to 56.3 min; in series [3], 87.6 min. In addition, the GI50 in series [2] fell in the range of 1 to 50 nM.

For `Cn1cc(-c2cc3c(N4CCN(c5ncc([C@](C)(N)c6ccc(F)cc6)cn5)CC4)ncnn3c2)cn1` [Compound A, (R)-1-(4-fluorophenyl)-1-(2-(4-(6-(1-methyl-1H-pyrazol-4-yl)pyrrolo[2,1-f][1,2,4]triazin-4-yl)piperazin-1-yl)pyrimidin-5-yl)ethan-1-amine, reference compound], the microsomal CLint at 1 μM in series [1] turned out to be 41.5 µL/min/mg; in series [3], 28.8 µL/min/mg. Moreover, the results for the half-life at 1 μM in series [1] and in series [3] were 33.4 min and 48.1 min, respectively.

Regarding `[2H]C([2H])([2H])n1cc(-c2cc3c(N4CCN(c5ncc([C@@](C)(N)c6ccc(F)cc6)cn5)CC4)ncnn3c2)cn1` [Compound T-1-S, (S)-1-(4-fluorophenyl)-1-(2-(4-(6-(1-(methyl-d3)-1H-pyrazol-4-yl)pyrrolo[2,1-f][1,2,4]triazin-4-yl)piperazin-1-yl)pyrimidin-5-yl)ethylamine], the GI50 in series [2] was in the range of 1 to 50 nM. In addition, in series [3], the microsomal CLint at 1 μM turned out to be 15.6 µL/min/mg and the half-life at 1 μM worked out at 88.6 min.

Regarding `[2H]C([2H])([2H])[C@](N)(c1ccc(F)cc1)c1cnc(N2CCN(c3ncnn4cc(-c5cnn(C)c5)cc34)CC2)nc1` [Compound T-2-S, (S)-1-(4-fluorophenyl)-1-(2-(4-(6-(1-methyl-1H-pyrazol-4-yl)pyrrolo[2,1-f][1,2,4]triazin-4-yl)piperazin-1-yl)pyrimidin-5-yl)ethan-2,2,2-d3-1-amine], the GI50 in series [2] is 1 to 50 nM.

In the case of `[2H]C([2H])([2H])n1cc(-c2cc3c(N4CCN(c5ncc([C@](N)(c6ccc(F)cc6)C([2H])([2H])[2H])cn5)CC4)ncnn3c2)cn1` [Compound T-3-R, (R)-1-(4-fluorophenyl)-1-(2-(4-(6-(1-(methyl-d3)-1H-pyrazol-4-yl)pyrrolo[2,1-f][1,2,4]triazin-4-yl)piperazin-1-yl)pyrimidin-5-yl)ethan-2,2,2-d3-1-amine], the microsomal CLint at 1 μM came to 37.2 µL/min/mg in series [1] and 27 µL/min/mg in series [3]. Besides, the figures for the half-life at 1 μM in series [1] and in series [3] were 37.3 min and 51.3 min, respectively.

For the compound `[2H]C([2H])([2H])n1cc(-c2cc3c(N4CCN(c5ncc([C@@](N)(c6ccc(F)cc6)C([2H])([2H])[2H])cn5)CC4)ncnn3c2)cn1` [Compound T-3-S, (S)-1-(4-fluorophenyl)-1-(2-(4-(6-(1-(methyl-d3)-1H-pyrazol-4-yl)pyrrolo[2,1-f][1,2,4]triazin-4-yl)piperazin-1-yl)pyrimidin-5-yl)ethan-2,2,2-d3-1-amine], in series [1], the microsomal CLint at 1 μM came to 15.6 µL/min/mg and the half-life at 1 μM was determined as 89.1 min. In addition, the GI50 in series [2] fell in the range of 1 to 50 nM. Besides, in series [3], the microsomal CLint at 1 μM is 13 µL/min/mg and the half-life at 1 μM was 107 min.

Consider `[2H]C1([2H])N(c2ncc([C@](C)(N)c3ccc(F)cc3)cn2)C([2H])([2H])C([2H])([2H])N(c2ncnn3cc(-c4cnn(C)c4)cc23)C1([2H])[2H]` [Compound T-4-R, (R)-1-(4-fluorophenyl)-1-(2-(4-(6-(1-methyl-1H-pyrazol-4-yl)pyrrolo[2,1-f][1,2,4]triazin-4-yl)piperazin-1-yl-2,2,3,3,5,5,6,6-d8)pyrimidin-5-yl)ethylamine], for which, in series [1], the microsomal CLint at 1 μM stood at 27 µL/min/mg and the half-life at 1 μM worked out at 51.4 min. For the same compound, in series [3], the microsomal CLint at 1 μM came to 26 µL/min/mg and the half-life at 1 μM came to 53.3 min.

Take `[2H]C1([2H])N(c2ncc([C@@](C)(N)c3ccc(F)cc3)cn2)C([2H])([2H])C([2H])([2H])N(c2ncnn3cc(-c4cnn(C)c4)cc23)C1([2H])[2H]` [Compound T-4-S, (S)-1-(4-fluorophenyl)-1-(2-(4-(6-(1-methyl-1H-pyrazol-4-yl)pyrrolo[2,1-f][1,2,4]triazin-4-yl)piperazin-1-yl-2,2,3,3,5,5,6,6-d8)pyrimidin-5-yl)ethylamine]: the values for the microsomal CLint at 1 μM in series [1] and in series [3] were 17.1 µL/min/mg and 15.3 µL/min/mg, respectively. Further, the half-life at 1 μM in series [1] turned out to be 81.1 min; in series [3], 90.5 min. Further, in series [2], the GI50 is 1 to 50 nM.

For the compound `[2H]C([2H])([2H])n1cc(-c2cc3c(N4C([2H])([2H])C([2H])([2H])N(c5ncc([C@@](C)(N)c6ccc(F)cc6)cn5)C([2H])([2H])C4([2H])[2H])ncnn3c2)cn1` [Compound T-5-S, (S)-1-(4-fluorophenyl)-1-(2-(4-(6-(1-(methyl-d3)-1H-pyrazol-4-yl)pyrrolo[2,1-f][1,2,4]triazin-4-yl)piperazin-1-yl-2,2,3,3,5,5,6,6-d8)pyrimidin-5-yl)ethylamine], the GI50 in series [2] is 1 to 50 nM.

Take `[2H]C1([2H])N(c2ncc([C@](N)(c3ccc(F)cc3)C([2H])([2H])[2H])cn2)C([2H])([2H])C([2H])([2H])N(c2ncnn3cc(-c4cnn(C)c4)cc23)C1([2H])[2H]` [Compound T-6-R, (R)-1-(4-fluorophenyl)-1-(2-(4-(6-(1-methyl-1H-pyrazol-4-yl)pyrrolo[2,1-f][1,2,4]triazin-4-yl)piperazin-1-yl-2,2,3,3,5,5,6,6-d8)pyrimidin-5-yl)ethan-2,2,2-d3-1-amine]: in series [1], the microsomal CLint at 1 μM worked out at 38.6 µL/min/mg and the half-life at 1 μM stood at 35.9 min. Also, in series [3], the microsomal CLint at 1 μM was determined as 24.2 µL/min/mg and the half-life at 1 μM is 57.3 min.

Consider `[2H]C1([2H])N(c2ncc([C@@](N)(c3ccc(F)cc3)C([2H])([2H])[2H])cn2)C([2H])([2H])C([2H])([2H])N(c2ncnn3cc(-c4cnn(C)c4)cc23)C1([2H])[2H]` [Compound T-6-S, (S)-1-(4-fluorophenyl)-1-(2-(4-(6-(1-methyl-1H-pyrazol-4-yl)pyrrolo[2,1-f][1,2,4]triazin-4-yl)piperazin-1-yl-2,2,3,3,5,5,6,6-d8)pyrimidin-5-yl)ethan-2,2,2-d3-1-amine], for which, in series [1], the microsomal CLint at 1 μM was found to be 15.5 µL/min/mg and the half-life at 1 μM came out at 89.4 min. Further, the GI50 in series [2] lay within 1 to 50 nM. In series [3], the microsomal CLint at 1 μM came to 13.1 µL/min/mg and the half-life at 1 μM was found to be 105 min.

Take `[2H]C([2H])([2H])n1cc(-c2cc3c(N4C([2H])([2H])C([2H])([2H])N(c5ncc([C@@](N)(c6ccc(F)cc6)C([2H])([2H])[2H])cn5)C([2H])([2H])C4([2H])[2H])ncnn3c2)cn1` [Compound T-7-S, (S)-1-(4-fluorophenyl)-1-(2-(4-(6-(1-(methyl-d3)-1H-pyrazol-4-yl)pyrrolo[2,1-f][1,2,4]triazin-4-yl)piperazin-1-yl-2,2,3,3,5,5,6,6-d8)pyrimidin-5-yl)ethan-2,2,2-d3-1-amine]: in series [2], the GI50 fell in the range of 1 to 50 nM.
